Calls of active or inactive are those of the source. No cut-off for these calls is given here.
What was measured:
D(2) dopamine receptor = D(2) dopamine receptor (Homo sapiens, UniProt P14416); assay: Antagonistic activity at human dopamine D2 receptor measured after 60 mins by Ultra Lance cAMP assay; format: functional
[1] = biological target: T1, 5-hydroxytryptamine receptor 1A (Homo sapiens, UniProt P08908); assay: Agonistic activity at human 5-HT1A receptor measured after 60 mins by Ultra Lance cAMP assay; format: functional
T1 sequence (P08908 whole entry): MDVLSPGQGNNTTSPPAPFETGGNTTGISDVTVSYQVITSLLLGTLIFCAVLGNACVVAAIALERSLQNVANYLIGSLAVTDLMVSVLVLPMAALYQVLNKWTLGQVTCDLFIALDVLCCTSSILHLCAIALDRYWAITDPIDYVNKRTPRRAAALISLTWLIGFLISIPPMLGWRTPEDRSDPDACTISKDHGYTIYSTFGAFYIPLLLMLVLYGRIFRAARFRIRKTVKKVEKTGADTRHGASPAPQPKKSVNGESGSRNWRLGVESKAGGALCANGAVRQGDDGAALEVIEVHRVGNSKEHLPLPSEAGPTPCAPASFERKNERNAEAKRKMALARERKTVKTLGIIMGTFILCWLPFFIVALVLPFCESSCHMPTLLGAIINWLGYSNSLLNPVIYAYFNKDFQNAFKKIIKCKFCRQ

[2] = biological target: 5-hydroxytryptamine receptor 2A (Homo sapiens, UniProt P28223); assay: Antagonistic activity at human 5-HT2A receptor assessed as calcium flux after 10 mins by FLIPR assay; format: functional
Sequence of 5-hydroxytryptamine receptor 2A (P28223 whole entry): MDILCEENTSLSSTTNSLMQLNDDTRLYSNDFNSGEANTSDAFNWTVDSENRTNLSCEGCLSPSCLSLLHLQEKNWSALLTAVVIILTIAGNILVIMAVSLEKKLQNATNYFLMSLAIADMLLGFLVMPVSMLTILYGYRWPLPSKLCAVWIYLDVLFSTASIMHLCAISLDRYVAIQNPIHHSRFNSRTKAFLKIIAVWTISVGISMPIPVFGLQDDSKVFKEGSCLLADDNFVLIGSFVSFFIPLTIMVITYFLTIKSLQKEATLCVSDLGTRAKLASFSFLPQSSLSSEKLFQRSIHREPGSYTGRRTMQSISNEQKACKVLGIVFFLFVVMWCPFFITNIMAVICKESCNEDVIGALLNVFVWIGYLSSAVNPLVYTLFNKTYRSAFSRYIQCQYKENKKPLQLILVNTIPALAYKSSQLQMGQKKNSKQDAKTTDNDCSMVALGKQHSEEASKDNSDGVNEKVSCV

Mus musculus [3] = assay: Toxicity in ig dosed mouse assessed as induction of catalepsy by horizontal bar method; format: organism-based; settings: in vivo, po
[4] = biological target: T2, 5-hydroxytryptamine receptor 2C (Homo sapiens, UniProt P28335); assay: Antagonistic activity at 5-HT2c receptor (unknown origin) after 10 mins by FLIPR assay
T2 sequence (P28335 whole entry): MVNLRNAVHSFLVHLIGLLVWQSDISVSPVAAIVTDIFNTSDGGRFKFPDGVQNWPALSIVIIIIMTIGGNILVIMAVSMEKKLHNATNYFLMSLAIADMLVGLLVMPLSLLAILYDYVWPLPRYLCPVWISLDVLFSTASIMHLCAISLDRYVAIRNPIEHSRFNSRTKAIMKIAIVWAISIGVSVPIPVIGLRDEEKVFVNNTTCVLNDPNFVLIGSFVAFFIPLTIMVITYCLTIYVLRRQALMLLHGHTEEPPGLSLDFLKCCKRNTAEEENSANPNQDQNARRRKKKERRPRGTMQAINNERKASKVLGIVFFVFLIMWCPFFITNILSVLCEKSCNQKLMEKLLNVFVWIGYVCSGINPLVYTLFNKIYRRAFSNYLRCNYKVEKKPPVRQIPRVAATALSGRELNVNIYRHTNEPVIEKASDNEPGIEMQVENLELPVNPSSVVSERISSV

Mus musculus [5] = assay: Antipsychotic activity in ig dosed mouse assessed as inhibition of PCP-induced hyperactivity; format: functional; settings: for ED50: po
[6] = Metabolic stability in human liver microsomes assessed as compound loss at 2 uM measured after 30 mins in presence of NADPH by LC-MS/MS analysis; format: ADME; settings: read-out: Drug degradation
[7] = biological target: T3, Alpha-1A adrenergic receptor (Homo sapiens, UniProt P35348); assay: Antagonistic activity at alpha-1A adrenergic receptor (unknown origin) after 10 mins by FLIPR assay
T3 sequence (P35348 whole entry): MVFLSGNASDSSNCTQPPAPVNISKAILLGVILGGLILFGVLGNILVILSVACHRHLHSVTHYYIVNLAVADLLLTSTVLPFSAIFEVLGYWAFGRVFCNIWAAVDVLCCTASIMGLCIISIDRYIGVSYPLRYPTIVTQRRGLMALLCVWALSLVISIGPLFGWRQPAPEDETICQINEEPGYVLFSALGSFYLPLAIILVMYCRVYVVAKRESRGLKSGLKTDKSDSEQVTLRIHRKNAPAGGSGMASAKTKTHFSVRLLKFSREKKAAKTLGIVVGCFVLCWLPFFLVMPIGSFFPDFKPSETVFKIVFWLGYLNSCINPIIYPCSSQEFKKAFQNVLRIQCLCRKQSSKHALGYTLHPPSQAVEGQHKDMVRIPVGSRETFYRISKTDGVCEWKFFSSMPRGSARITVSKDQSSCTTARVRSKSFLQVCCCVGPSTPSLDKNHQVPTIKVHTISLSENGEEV

Mus musculus [8] = assay: Toxicity in mouse assessed as induction of sedation at 1 mg/kg, ip administered 45 mins prior testing measured after 60 mins; format: organism-based; settings: in vivo, 1 h
Mus musculus [9] = assay: Antipsychotic activity in mouse assessed as inhibition of PCP-induced hyperactivity at 10 mg/kg, ip administered 45 mins prior testing measured after 60 mins; format: functional, organism-based
Mus musculus [10] = assay: Antipsychotic activity in mouse assessed as inhibition of PCP-induced hyperactivity at 1 mg/kg, ip administered 45 mins prior testing measured after 60 mins; format: functional, organism-based
Histamine H1 receptor = Histamine H1 receptor (Homo sapiens, UniProt P35367); assay: Antagonistic activity at histamine1 receptor (unknown origin) after 10 mins by FLIPR assay
Sequence of Histamine H1 receptor (P35367 whole entry): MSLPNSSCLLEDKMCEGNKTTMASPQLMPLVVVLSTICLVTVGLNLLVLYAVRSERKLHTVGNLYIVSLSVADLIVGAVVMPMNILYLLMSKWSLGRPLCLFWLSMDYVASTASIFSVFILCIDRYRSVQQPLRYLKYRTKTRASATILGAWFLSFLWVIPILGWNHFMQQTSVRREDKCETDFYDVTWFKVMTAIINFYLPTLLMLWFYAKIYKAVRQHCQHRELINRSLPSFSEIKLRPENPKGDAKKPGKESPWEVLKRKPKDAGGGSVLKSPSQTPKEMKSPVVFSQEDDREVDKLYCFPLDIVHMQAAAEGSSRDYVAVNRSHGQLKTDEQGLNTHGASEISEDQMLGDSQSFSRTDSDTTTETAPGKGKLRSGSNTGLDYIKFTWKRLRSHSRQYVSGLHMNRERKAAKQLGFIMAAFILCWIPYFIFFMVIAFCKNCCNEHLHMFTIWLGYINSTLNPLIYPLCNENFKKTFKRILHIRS

Mus musculus [11] = assay: Toxicity in mouse assessed as induction of sedation at 10 mg/kg, ip administered 45 mins prior testing measured after 60 mins; format: organism-based; settings: in vivo, 1 h
[12] = biological target: Voltage-gated inwardly rectifying potassium channel KCNH2 (Homo sapiens, UniProt Q12809)
Sequence of Voltage-gated inwardly rectifying potassium channel KCNH2 (Q12809 whole entry): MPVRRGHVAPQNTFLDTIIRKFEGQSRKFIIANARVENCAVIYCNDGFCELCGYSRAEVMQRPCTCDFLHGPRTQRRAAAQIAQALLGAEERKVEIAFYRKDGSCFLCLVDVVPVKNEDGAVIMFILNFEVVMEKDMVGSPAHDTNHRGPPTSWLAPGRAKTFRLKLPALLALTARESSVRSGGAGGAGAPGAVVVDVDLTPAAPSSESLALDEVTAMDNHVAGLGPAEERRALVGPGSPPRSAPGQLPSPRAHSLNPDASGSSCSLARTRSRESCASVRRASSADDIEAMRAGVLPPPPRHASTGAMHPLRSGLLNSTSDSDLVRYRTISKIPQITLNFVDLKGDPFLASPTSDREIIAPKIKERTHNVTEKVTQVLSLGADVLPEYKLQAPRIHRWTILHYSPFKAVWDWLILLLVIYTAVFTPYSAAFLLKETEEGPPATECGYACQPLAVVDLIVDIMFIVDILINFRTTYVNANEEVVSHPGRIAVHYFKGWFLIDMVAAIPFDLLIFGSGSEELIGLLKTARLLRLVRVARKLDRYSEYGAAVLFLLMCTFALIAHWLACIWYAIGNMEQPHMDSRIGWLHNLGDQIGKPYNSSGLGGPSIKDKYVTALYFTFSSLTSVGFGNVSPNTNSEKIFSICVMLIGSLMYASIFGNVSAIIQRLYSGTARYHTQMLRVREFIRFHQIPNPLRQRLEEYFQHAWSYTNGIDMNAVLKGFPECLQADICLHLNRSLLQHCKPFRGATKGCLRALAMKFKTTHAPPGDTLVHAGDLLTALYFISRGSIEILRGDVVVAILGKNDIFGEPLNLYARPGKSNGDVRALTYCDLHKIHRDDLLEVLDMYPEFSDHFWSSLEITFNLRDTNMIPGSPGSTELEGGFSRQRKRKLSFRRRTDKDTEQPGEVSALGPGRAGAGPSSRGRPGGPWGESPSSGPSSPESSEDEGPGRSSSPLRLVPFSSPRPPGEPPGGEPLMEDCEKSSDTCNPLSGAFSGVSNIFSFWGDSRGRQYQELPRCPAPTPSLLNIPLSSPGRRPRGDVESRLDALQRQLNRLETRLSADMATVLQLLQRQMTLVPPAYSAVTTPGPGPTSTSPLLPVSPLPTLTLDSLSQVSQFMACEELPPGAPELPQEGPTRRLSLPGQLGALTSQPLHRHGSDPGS
Description: Inhibition of human ERG after 10 mins

in vivo = settings: mouse, po
Description: Therapeutic index, ratio of ED50 for toxicity in orally dosed mouse by catalepsy test to ED50 for antipsychotic activity in mouse

Sequence of D(2) dopamine receptor (P14416 whole entry): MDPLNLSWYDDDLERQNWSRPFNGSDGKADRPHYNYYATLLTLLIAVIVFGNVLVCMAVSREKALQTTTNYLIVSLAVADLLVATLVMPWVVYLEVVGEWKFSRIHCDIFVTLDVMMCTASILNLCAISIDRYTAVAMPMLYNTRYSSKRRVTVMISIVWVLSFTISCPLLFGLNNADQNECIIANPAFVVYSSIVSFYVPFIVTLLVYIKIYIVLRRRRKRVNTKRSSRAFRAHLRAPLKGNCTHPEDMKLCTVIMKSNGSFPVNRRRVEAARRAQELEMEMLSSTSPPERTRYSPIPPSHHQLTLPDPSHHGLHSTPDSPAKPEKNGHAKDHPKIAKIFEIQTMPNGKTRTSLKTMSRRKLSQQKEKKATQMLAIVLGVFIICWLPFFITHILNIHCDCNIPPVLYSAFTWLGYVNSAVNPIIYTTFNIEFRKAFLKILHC

Row | Compound | IC50 (D(2) dopamine receptor) [nM] | EC50 [1] [nM] | IC50 [2] [nM] | further results
1 | CNC(=O)c1cc(OCCCCN2CCN(c3cccc(Cl)c3Cl)CC2)ccc1Cl | 34.9 | 34.4 | 340 | 
2 | CNC(=O)c1ccccc1OCCCCN1CCN(c2cccc(Cl)c2Cl)CC1 | 167 | 309 | 2200 | 
3 | CNC(=O)c1cc(OCCCCN2CCN(c3cccc(Cl)c3Cl)CC2)ccc1C | 9.8 | 74 | 460 | 
4 | CNC(=O)c1ccc(Cl)c(OCCCCN2CCN(c3cccc(Cl)c3Cl)CC2)c1 | 58.5 | > 10000 | 1380 | 
5 | Cc1nc2n(c(=O)c1CCN1CCC(c3noc4cc(F)ccc34)CC1)CCCC2 [RISPERIDONE] |  |  |  | ED50 (Mus musculus [3]): 0.3 mg/kg
6 | CC(=O)Nc1cccc(OCCCCN2CCN(c3cccc(Cl)c3Cl)CC2)c1 | 98.4 | > 100 | 1050 | 
7 | CNC(=O)c1cc(OCCCCN2CCC(c3noc4cc(F)ccc34)CC2)ccc1F | 23 | 13 | 15 | IC50 [4]: 270 nM; inhibition (Mus musculus [5]): Dose-dependent effect; ED50 (Mus musculus [5]): 0.11 mg/kg; metabolised at 0.5 h, 2 µM [6]: 14%; IC50 [7]: 120 nM; Activity (Mus musculus [8]): Non-toxic; inhibition (Mus musculus [9]): Active; inhibition (Mus musculus [10]): Active; IC50 (Histamine H1 receptor): 972 nM; ED50 (Mus musculus [3]): 7.04 mg/kg; Activity (Mus musculus [11]): Toxic
8 | CNC(=O)c1cc(OCCCCN2CCN(c3cccc4sccc34)CC2)ccc1F | 43 | 6 | 80 | metabolised at 0.5 h, 2 µM [6]: 51%; inhibition (Mus musculus [9]): inactive
9 | CNC(=O)c1cccc(OCCCCN2CCN(c3cccc(Cl)c3Cl)CC2)c1C | 3600 | 122 | 860 | 
10 | CNC(=O)c1ccc(OC)c(OCCCCN2CCN(c3cccc(Cl)c3Cl)CC2)c1 | 12 | 26 | 840 | 
11 | CNC(=O)c1cccc(OCCCCN2CCN(c3cccc(Cl)c3Cl)CC2)c1OC | 202 | 120 | 720 | 
12 | CNC(=O)c1cc(OCCCCN2CCN(c3cccc(Cl)c3Cl)CC2)cc(C(C)=O)c1 | 37.7 | 137 | 494 | 
13 | CNC(=O)c1cccc(OCCCCN2CCN(c3cccc(Cl)c3Cl)CC2)c1 | 32 | 24 | 1100 | 
14 | CCNC(=O)c1cccc(OCCCCN2CCN(c3cccc(Cl)c3Cl)CC2)c1 | 116 | 101 | 670 | 
15 | CNC(=O)c1cccc(OCCCCN2CCN(c3cccc4c3OC(F)(F)O4)CC2)c1 | 4.1 | 12 | > 10000 | 
16 | CNC(=O)c1cc(OCCCCN2CCN(c3cccc4c3OC(F)(F)O4)CC2)ccc1F | 30 | 8.2 | 1900 | 
17 | CNC(=O)c1cc(C)cc(OCCCCN2CCN(c3cccc(Cl)c3Cl)CC2)c1 | 89.8 | 97.2 | 1400 | 
18 | CNC(=O)c1cc(F)cc(OCCCCN2CCN(c3cccc(Cl)c3Cl)CC2)c1 | 1580 | 361 | 1320 | 
19 | NC(=O)c1cccc(OCCCCN2CCN(c3cccc(Cl)c3Cl)CC2)c1 |  | 26 | 1100 | 
20 | CCCCCNC(=O)c1cccc(OCCCCN2CCN(c3cccc(Cl)c3Cl)CC2)c1 | 16.8 | 464 | 1100 | 
21 | CNC(=O)c1cccc(OCCCCN2CCN(c3cccc(Cl)c3Cl)CC2)c1F | 171 | 301 | 30.3 | 
22 | CNC(=O)c1cc(OCCCCN2CCN(c3cccc(Cl)c3Cl)CC2)ccc1F | 39.4 | 7.2 | 360 | 
23 | CNC(=O)c1cc(OCCCCN2CCN(c3nsc4ccccc34)CC2)ccc1F | 12 | 2.7 | 35 | metabolised at 0.5 h, 2 µM [6]: 47%; inhibition (Mus musculus [9]): inactive
24 | CNC(=O)c1cccc(OCCCCN2CCN(c3nsc4ccccc34)CC2)c1 | 10 | 4.3 | 180 | 
25 | CNC(=O)c1cccc(OCCCCN2CCC(c3noc4cc(F)ccc34)CC2)c1 | 8.5 | 13 | 46 | IC50 [4]: 190 nM; inhibition (Mus musculus [5]): Dose-dependent effect; ED50 (Mus musculus [5]): 0.06 mg/kg; metabolised at 0.5 h, 2 µM [6]: 3%; IC50 [7]: 35 nM; Activity (Mus musculus [8]): Non-toxic; inhibition (Mus musculus [9]): Active; inhibition (Mus musculus [10]): Active; IC50 (Histamine H1 receptor): 2560 nM; IC50 [12]: 1030 nM; selectivity ratio (in vivo): 113; ED50 (Mus musculus [3]): 6.76 mg/kg; Activity (Mus musculus [11]): Toxic
26 | CNC(=O)c1ccc(OCCCCN2CCN(c3cccc(Cl)c3Cl)CC2)cc1 | 70 | 122 | 820 | 
27 | CNC(=O)c1cccc(OCCCCN2CCN(c3cccc4sccc34)CC2)c1 | 91 | 5.1 | 216 | 

— ChEMBL document CHEMBL3804825, “Synthesis, structure-activity relationships, and biological evaluation of a series of benzamides as potential multireceptor antipsychotics” (Bioorg Med Chem Lett, 2016)
